Assays:
[1] = system: Human umbilical vein endothelial cells (HUVECs); assay: Tube formation assay of HUVEC in Matrigel; type: cell-based; conditions: 50 μM ticlopidine alone; total tube area per well relative to control (100)
Procedure: The tube formation assay was performed as follows: 48-well plates were coated with 0.2 ml of Matrigel (BD Bioscience, Bedford, Mass., USA) and incubated at 37° C. for 1 hr. 4˜6×10^4 HUVECs resuspended in 0.4 ml of M199 medium were added to each well. Ticlopidine (Sigma Chemical Co., USA) and Ginkgo biloba extract (Hwa Il Pharmaceutical Co., LTD, Korea), a standardized extract that contained 24% flavonoid glycosides and 6% terpenoids, were added to the Matrigel. Final concentration of ticlopidine and Ginkgo biloba extract were 25 μM and 5 μg/ml, respectively. As a control, the procedure was repeated without added ticlopidine and Ginkgo biloba extract. Comparative runs were also conducted by the same procedure using ticlopidine alone (comparative run 1) or only with Ginkgo biloba extract (comparative run 2). The extent of tube formation was determined by measuring the total tube area per well relative to that of the control using image analysis program Image-Pro Pluso (Media Cybernetics, USA).

[2] = system: formation of blood vessels in Matrigel; assay: Matrigel plug assay (hemoglobin in bFGF/heparin Matrigel implanted in mice); type: in vivo, C57BL/6 female mice; conditions: 0.65 mg/mouse orally twice per day for four days; control = 100
Procedure: 0.4 ml portion of Matrigel each mixed with 50 ng/ml of basic fibroblast growth factor (bFGF) and 50 units of heparin were implanted by subcutaneous injection in 5-week-old C57BL/6 female mice, and a mixture of 0.65 mg ticlopidine and 0.4 mg Ginkgo biloba extract was orally administrated to each mouse twice per day for four days. Then each mouse was sacrificed and the Matrigel was excised. For comparison, the procedure was repeated using ticlopidine or Ginkgo biloba extract alone. The formation of blood vessels in Matrigel was tested by measuring the amount of hemoglobin (Hb) in the Matrigel using the Drabkin reagent kit (Sigma Chemical Co., St. Louise, Mich., USA) which contained standards of known amounts of Hb.

## Clc1ccccc1CN1CCc2sccc2C1 [Ticlopidine, 5-[(2-chlorophenyl)methyl]-4,5,6,7-tetrahydrothieno[3,2-C]pyridine]
[1]
  Total Tube Area %: 91%
[2]
  Hemoglobin (%): 95%

Source: patent US20030165586A1, “Anti-angiogenic composition comprising ticlopidine and gingko biloba extract” (priority 2003, published 2003)
